Results: patent US11213530B2, “Gallium in the treatment of coronavirus disease” (priority 2020, dated 2022)

Test system: SARS-CoV-2 (WIV04)
Format: cell-based
Details: Vero-E6 cells

## Cc1occc(=O)c1[O-].Cc1occc(=O)c1[O-].Cc1occc(=O)c1[O-].[Ga+3] [gallium maltolate]
MOI 0.005, 0.1 μM to 100 μM, 24 hours, FIG. 1
  in vitro antiviral activity: pronounced, dose-dependent in vitro antiviral activity
MOI 0.005, viral RNA in culture media by qRT-PCR at 24 hours after treatment, read-out: concentration that inhibited viral replication by 50% (EC50)
  EC50: ~14 µM
